Here are results for two compounds from patent publication US20070232609A1, “Novel Antiparasitic Combination of Active Compounds” (BAYER HEALTHCARE AG, priority 2004, published 2007).

The subject of the experiment is Eimeria acervulina, E. maxima, E. tenella. Briefly: Cage experiment on coccidiosis/chicks. It counts as in vivo. The settings on record: for Mortality %: day -3 to 8 (9) p.i.; for % efficacy (total score): 0% no action, 100% full action; for Dropping score / Lesion score: assessment 0 to 6. As to the method: The efficacy of the compounds according to the invention can be confirmed, for example, in cage experiments with the following experimental arrangement, in which the animals are treated with the respective individual components and with the mixtures of the individual components.
An active compound-containing feed is prepared such that the required amount of active compound is basically mixed with a nutritionally balanced animal feed, e.g. with the chick feed indicated below.
Cage Experiment on Coccidiosis/Chicks
8- to 12-day-old male chicks (e.g. LSL Brinkschulte/Senden) which have been reared coccidia-free receive the compounds according to the invention (test substances) in the concentration indicated in ppm with the feed from 3 days before (day −3) infection (=a.i.) until 8 (9) days after infection (=p.i.). 3 animals are kept in each cage. One or more groups of this type are employed per dose. Infection is carried out by means of a stomach tube directly into the crop with approximately 100 000 sporulated oocysts of Eimeria acervulina and with approximately 30 000 oocysts each of E. maxima and 40 000 sporulated oocysts of E. tenella. These are highly virulent strains. The exact infection dose is adjusted so that, if possible, one of three experimentally infected untreated chicks dies due to the infection. For assessment of the efficacy, the following criteria are taken into account: weight increase from the start of the experiment to the end of the experiment, death rate due to infection, macroscopic assessment of the faeces with respect to diarrhea and excretion of blood on days 5 and 7 p.i. (assessment 0 to 6), macroscopic assessment of the intestinal mucosa, in particular of the appendices (assessment 0 to 6) and the oocyst excretion as well as the proportion (in %) of the oocysts sporulating in the course of 24 hours. The number of oocysts in the faeces was determined with the aid of a McMaster counting chamber (see Engelbrecht and coworkers “Parasitologische Arbeitsmethoden in Medizin und Veterinärmedizin” [Parasitological Working Methods in Medicine and Veterinary Medicine], Akademie-Verlag, Berlin (1965)). The individual findings are related to the untreated non-infected control groups and a total score is calculated (cf. A. Haberkorn (1986), pp. 263 to 270 in Research in Avian Coccidiosis ed. L. R. McDougald, L. P. Joyner, P. L. Long, Proceedings of the Georgia Coccidiosis Conference, Nov. 18-20, 1985, Athens/Georgia USA).
In the column “ppm”, the concentration of the active compound employed in the feed is indicated in ppm.
In the column “mortality”, the percentage of the dead animals is indicated under % and the number of dead animals/animals employed in the experiment is indicated under n.
In the column “weight % of not inf. control”, the ratio of the weight of the treated animals to the weight of the non-infected control group is indicated.
In the columns “dropping scores”, “lesion score” and “oocyst control”, individual details of the action are given.
In the column “% efficacy”, the total score is assessed; 0% means no action, 100% means full action.

Turning to `FC(F)(F)c1nc2c(Cl)cc3c(c2[nH]1)OC(F)(F)C(F)(F)O3` [(I-A)*], under “1 ppm in feed”, the “Mortality n (dead animals/animals employed)” value is recorded as 0/3, the “Oocysts in % of inf. control” value is listed as 36.0 % of inf. control, the “Weight in % of not inf. control” value is recorded as 16 % of not inf. control and the Mortality % was determined as 0%. Moreover, for the setting “1 ppm in feed”, the “% efficacy (total score)” value was determined as 15.7%, the Dropping score is 6 and the Lesion score is 6. Also, for the setting “2.5 ppm in feed”, the “Mortality n (dead animals/animals employed)” value is listed as 0/3, the “Oocysts in % of inf. control” value is listed as 80.7 % of inf. control, the “Weight in % of not inf. control” value is on record as 41 % of not inf. control and the Mortality % came to 0%. For the setting “2.5 ppm in feed”, the “% efficacy (total score)” value is listed as 12.3%, the Dropping score was 6 and the Lesion score turned out to be 6.
Consider `N#CC(c1ccc(Cl)cc1)c1c(Cl)cc(-n2ncc(=O)[nH]c2=O)cc1Cl` (stereo not shown) [Diclazuril], for which, for the setting “0.05 ppm in feed”, the “Mortality n (dead animals/animals employed)” value is 0/3, the “Oocysts in % of inf. control” value is given as 17.0 % of inf. control, the “Weight in % of not inf. control” value is 86 % of not inf. control and the Mortality % is on record as 0%. For the same compound, for the setting “0.05 ppm in feed”, the “% efficacy (total score)” value was 69.3%, the Dropping score turned out to be 0 and the Lesion score is 0. Where the note is “0.1 ppm in feed”, the “Mortality n (dead animals/animals employed)” value is 0/3, the “Oocysts in % of inf. control” value is 14.0 % of inf. control, the “Weight in % of not inf. control” value is 92 % of not inf. control and the Mortality % amounted to 0%. For the same compound, where the note is “0.1 ppm in feed”, the “% efficacy (total score)” value worked out at 77.0%, the Dropping score is 0-2 and the Lesion score came to 0.
